Measurements: article PMC4669708 (Cell Death & Disease, 2015)

Assays:
Experiment in all cases: c-ponatinib pulldown LC-MS/MS
Format in all cases: binding
TAOK3 = target: T1, TAOK3 (Homo sapiens, UniProt Q9H2K8)
T1 sequence (Q9H2K8 1-898): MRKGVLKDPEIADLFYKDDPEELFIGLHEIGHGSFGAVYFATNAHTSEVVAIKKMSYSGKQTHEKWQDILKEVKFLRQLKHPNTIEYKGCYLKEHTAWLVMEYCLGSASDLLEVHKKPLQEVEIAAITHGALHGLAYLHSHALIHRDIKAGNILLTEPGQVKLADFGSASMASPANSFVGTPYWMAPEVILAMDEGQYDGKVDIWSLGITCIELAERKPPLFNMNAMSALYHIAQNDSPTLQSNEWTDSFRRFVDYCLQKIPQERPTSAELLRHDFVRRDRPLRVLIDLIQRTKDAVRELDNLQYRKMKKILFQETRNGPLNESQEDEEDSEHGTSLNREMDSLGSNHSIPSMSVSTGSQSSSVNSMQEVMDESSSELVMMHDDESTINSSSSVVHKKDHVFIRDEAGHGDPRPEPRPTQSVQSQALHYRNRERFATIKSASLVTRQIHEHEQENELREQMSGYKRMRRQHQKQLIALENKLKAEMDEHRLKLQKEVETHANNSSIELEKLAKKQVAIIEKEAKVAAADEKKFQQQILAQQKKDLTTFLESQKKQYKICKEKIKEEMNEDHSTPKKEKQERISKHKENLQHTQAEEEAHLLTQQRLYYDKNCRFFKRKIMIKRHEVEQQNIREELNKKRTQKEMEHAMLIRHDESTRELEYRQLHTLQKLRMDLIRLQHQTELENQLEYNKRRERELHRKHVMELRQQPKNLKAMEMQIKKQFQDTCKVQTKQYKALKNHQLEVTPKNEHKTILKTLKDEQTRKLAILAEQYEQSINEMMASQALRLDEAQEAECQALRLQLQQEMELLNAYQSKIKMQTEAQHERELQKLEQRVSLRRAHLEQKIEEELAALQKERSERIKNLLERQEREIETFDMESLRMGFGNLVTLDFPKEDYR
Summary of the method: (§1)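 Spectral counts and search-engine scores from LC-MS/MS of tryptic eluates gave drug-protein specificity P-values. Eluates came from duplicate pulldowns of 10 mg lysate on 25 nmol immobilized c-ponatinib. Competition was the ratio of median counts with versus without free compound.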

YWHAB = target: T2, YWHAB (Homo sapiens, UniProt P31946)
T2 sequence (P31946 1-246): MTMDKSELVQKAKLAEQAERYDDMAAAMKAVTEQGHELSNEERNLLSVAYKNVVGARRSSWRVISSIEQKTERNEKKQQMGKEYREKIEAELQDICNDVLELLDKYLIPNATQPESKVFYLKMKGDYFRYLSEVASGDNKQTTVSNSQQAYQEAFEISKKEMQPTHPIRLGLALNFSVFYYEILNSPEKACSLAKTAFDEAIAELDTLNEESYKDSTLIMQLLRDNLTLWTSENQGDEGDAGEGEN
Summary of the method: as §1

ZAK = ZAK (Homo sapiens, UniProt Q9NYL2)
Chain of ZAK (Q9NYL2 whole entry): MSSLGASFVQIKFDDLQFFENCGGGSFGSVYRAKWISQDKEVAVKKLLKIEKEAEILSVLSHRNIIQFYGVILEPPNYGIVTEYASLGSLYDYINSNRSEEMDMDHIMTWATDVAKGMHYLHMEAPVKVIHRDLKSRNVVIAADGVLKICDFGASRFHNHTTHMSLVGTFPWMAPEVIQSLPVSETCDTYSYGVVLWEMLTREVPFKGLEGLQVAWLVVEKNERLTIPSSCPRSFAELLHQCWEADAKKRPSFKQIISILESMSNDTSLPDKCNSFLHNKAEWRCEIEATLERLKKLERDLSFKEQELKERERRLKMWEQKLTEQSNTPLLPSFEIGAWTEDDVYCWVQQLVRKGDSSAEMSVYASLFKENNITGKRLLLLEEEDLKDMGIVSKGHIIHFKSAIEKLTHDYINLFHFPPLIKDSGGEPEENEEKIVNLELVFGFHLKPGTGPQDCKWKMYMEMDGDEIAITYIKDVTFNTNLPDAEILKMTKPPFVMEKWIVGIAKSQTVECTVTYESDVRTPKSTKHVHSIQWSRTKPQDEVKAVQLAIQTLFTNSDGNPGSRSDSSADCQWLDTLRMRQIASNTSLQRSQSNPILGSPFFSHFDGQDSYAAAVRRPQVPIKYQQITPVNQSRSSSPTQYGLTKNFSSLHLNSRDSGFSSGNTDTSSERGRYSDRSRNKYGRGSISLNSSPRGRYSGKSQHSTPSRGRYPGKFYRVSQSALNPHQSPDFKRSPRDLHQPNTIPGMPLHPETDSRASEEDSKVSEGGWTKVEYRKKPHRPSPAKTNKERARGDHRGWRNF
Summary of the method: as §1

YWHAQ = target: T3, YWHAQ (Homo sapiens, UniProt P27348)
T3 sequence (P27348 1-245): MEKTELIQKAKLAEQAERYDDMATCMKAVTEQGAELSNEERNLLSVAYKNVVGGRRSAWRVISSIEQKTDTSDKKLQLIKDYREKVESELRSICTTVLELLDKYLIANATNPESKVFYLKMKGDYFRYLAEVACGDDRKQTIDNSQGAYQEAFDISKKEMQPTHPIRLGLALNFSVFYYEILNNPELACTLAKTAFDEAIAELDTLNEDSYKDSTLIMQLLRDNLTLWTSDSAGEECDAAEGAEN
Summary of the method: as §1

Av. SC comp. (TAOK3; + free ponatinib): 2
Total SC comp. (TAOK3; + free ponatinib): 8
Av. SC (TAOK3; no competitor): 13
Total SC (TAOK3; no competitor): 52
Av. SC comp. (YWHAB; + free ponatinib): 1
Total SC comp. (YWHAB; + free ponatinib): 4
Av. SC (YWHAB; no competitor): 7
Total SC (YWHAB; no competitor): 28
Av. SC comp. (ZAK; + free ponatinib): 0
Total SC comp. (ZAK; + free ponatinib): 0
Av. SC (ZAK; no competitor): 65.25
Total SC (ZAK; no competitor): 261
Av. SC comp. (YWHAQ; + free ponatinib): 1.25
Total SC comp. (YWHAQ; + free ponatinib): 5
Av. SC (YWHAQ; no competitor): 9
Total SC (YWHAQ; no competitor): 36
SMILES: Cc1ccc(C(=O)Nc2ccc(CN3CCN(CCCN)CC3)c(C(F)(F)F)c2)cc1C#Cc1cnc2cccnn12 [c-ponatinib]
